Assay [1] deals with S. aureus FDA209P (ATCC 6538P). The assay can be described thus: microbe, parasite or virus in culture. To be noted: for MIC: Staphylococcus aureus, read-out: MIC (mg/L) FDA209P. In kind it is cell-based, Staphylococcus aureus. The method, then:
(§1) S. aureus Mu50 (refer to Hiramatsu, K., Hanaki H., et al., J. Antimicrob. Chemother., 1997, 40(1), 135-6) or S. aureus FDA209P (ATCC 6538P) was cultured overnight at 37° C. in 4 mL of TBS (Tryptical Soy Broth, produced by Becton Dickinson) with shaking. After completion of the culture, the cells were suspended in fresh TBS to prepare a cell suspension showing an absorbance of 0.3 at 578 nm. Then, the cell suspension was diluted 500 times with CAMHB mentioned above.
(§2) CAMHB containing each test compound at each of the aforementioned concentrations was added to each well of a 96-well plate in a volume of 50 μL/well, the aforementioned cell suspension diluted 500 time was added to the well in a volume of 50 μL/well, and stationary culture was carried out overnight at 37° C.
(§3) MIC values (mg/L) of the flavones and quinolones against the strains were measured in the same manner as that of the measurement of MIC of Example 1, except that CAMHB containing each of the aforementioned flavones and quinolones prepared in Example 2 was used instead of CAMHB containing each of the test compounds.
(§4) MIC values of the flavones and quinolone for the strains were measured in the same manners as those of Example 1, except that S. aureus Mu50 NR-1 was also used as Staphylococcus aureus in addition to S. aureus FDA209P and S. aureus Mu50, cell suspensions of the strains were prepared.
(§5) In the same manner as that of Example 1, MIC values of M-246, M-21, J-Q21, and J-Q12.1 for Staphylococcus aureus were measured. M-246 and M-21 were obtained as commercial products, and as J-Q21 and J-Q12.1, those synthesized in Examples 6 and 7 were used.

Another assay has as its system S. aureus Mu50. The assay can be described thus: microbe, parasite or virus in culture. In kind it is cell-based, Staphylococcus aureus. To be noted: for MIC: Staphylococcus aureus; for MIC (mg/L) Mu50: Example 1, Tables 1 to 10. How it is done: as §1, §2, §3, §4, §5
The mark [2] stands for this setting: MU50, read-out: MIC (mg/L) Mu50, Example 1, Tables 1 to 10.
The mark [3] stands for this setting: MU50, read-out: MIC (mg/L) Mu50.

In brackets after ≈: the same amount, converted by molar mass. Where two headings read alike, the source gives them in different places. A value given as a limit tells only on which side of the number the result lay.

On to `COc1cc(OC)c2c(=O)cc(-c3cc(OC)c(OC)c(OC)c3)oc2c1` [compound 43], for which the MIC in assay [1] (Example 1, Tables 1 to 10) was more than 128 mg/L; in the assay on S. aureus Mu50 (setting [2]), more than 128 mg/L.
As to `COc1ccc(-c2coc3cc(OC)cc(OC)c3c2=O)cc1` [compound 76], the MIC in assay [1] (Example 1, Tables 1 to 10) was more than 128 mg/L; with S. aureus Mu50 (setting [2]), more than 128 mg/L.
For `COc1ccc(-c2coc3cc(OC)cc(O)c3c2=O)cc1` [compound 74], the MIC in assay [1] (Example 1, Tables 1 to 10) was more than 128 mg/L; in the assay on S. aureus Mu50 (setting [2]), more than 128 mg/L.
As for `COc1ccc(-c2coc3cc(OC(=O)N(C)C)cc(OC)c3c2=O)cc1OC` [compound 80], the MIC (in assay [1]; with S. aureus Mu50 (setting [3])) was more than 128 mg/L each time.
Take `COc1cc(OC)c2c(=O)c(OC)c(-c3ccc(OC)c(OC)c3)oc2c1` [compound 19]: the “MIC (mg/L) FDA209P” value in assay [1] (Example 1, Tables 1 to 10) is more than 128 mg/L. Besides, in the assay on S. aureus Mu50, the “MIC (mg/L) Mu50” value is reported as more than 128 mg/L.
As to `O=c1cc(-c2ccc(O)c(-c3c(O)cc(O)c4c(=O)cc(-c5ccc(O)cc5)oc34)c2)oc2cc(O)cc(O)c12` [compound 45], the MIC was more than 128 mg/L in assay [1] (Example 1, Tables 1 to 10) and more than 128 mg/L with S. aureus Mu50 (setting [2]).
Turning to `COc1cc(OC)c2c(=O)c(-c3ccc(O)cc3)coc2c1` [compound 121], the MIC was more than 128 mg/L in assay [1] (Example 1, Tables 1 to 10) and more than 128 mg/L with S. aureus Mu50 (setting [2]).
With `CC(C)Oc1ccc(-c2cc(=O)c3c(OC(C)C)cc(OC(C)C)c(I)c3o2)cc1` [compound 23], in assay [1] (Example 1, Tables 1 to 10), the “MIC (mg/L) FDA209P” value is on record as more than 128 mg/L. Besides, in the assay on S. aureus Mu50, the “MIC (mg/L) Mu50” value was more than 128 mg/L.
Turning to `O=C1CC(c2ccccc2)Oc2ccccc21` (stereo not drawn) [compound 126], the MIC is 128 mg/L (≈ 571 µM) in assay [1] (Example 1, Tables 1 to 10) and 128 mg/L (≈ 571 µM) in the assay on S. aureus Mu50 (setting [2]).
Consider `COc1ccc(-c2cc(=O)c3c(O)c(OC)c(OC)cc3o2)cc1O` [compound 40], for which the MIC stood at 128 mg/L (≈ 372 µM) in assay [1] (Example 1, Tables 1 to 10) and 128 mg/L (≈ 372 µM) in the assay on S. aureus Mu50 (setting [2]).
As to `O=c1cc(-c2ccccc2)oc2c1ccc1ccccc12` [compound 58], the “MIC (mg/L) FDA209P” value in assay [1] (Example 1, Tables 1 to 10) is 128 mg/L (≈ 470 µM). Also, the “MIC (mg/L) Mu50” value against S. aureus Mu50 is given as 128 mg/L (≈ 470 µM).
As for `COc1ccc(-c2cc(=O)c3c(OC)cc(OC)cc3o2)cc1` [compound 18], in assay [1] (Example 1, Tables 1 to 10), the “MIC (mg/L) FDA209P” value was determined as 128 mg/L (≈ 410 µM). For the same compound, in the assay with S. aureus Mu50, the “MIC (mg/L) Mu50” value was 128 mg/L (≈ 410 µM).
As for `CC(=O)C1C(=O)c2ccccc2N(c2ccccc2)C1=O` (stereo not drawn) [compound 56], the MIC in assay [1] (Example 1, Tables 1 to 10) was more than 128 mg/L; in the assay on S. aureus Mu50 (setting [2]), more than 128 mg/L.
Take `O=C(O)COc1cc(O)c2c(=O)c(-c3ccc4c(c3)OCCO4)coc2c1` [compound 102]: the MIC in assay [1] (Example 1, Tables 1 to 10) amounted to 128 mg/L (≈ 346 µM); with S. aureus Mu50 (setting [2]), 128 mg/L (≈ 346 µM).
For the compound `COc1cc(-c2oc3cc(O)c(OC)c(O)c3c(=O)c2OC)ccc1O` [compound 29], the MIC in assay [1] (Example 1, Tables 1 to 10) is more than 128 mg/L; in the assay with S. aureus Mu50 (setting [2]) it was more than 128 mg/L.
In the case of `COc1ccc(C2CC(=O)c3c(O)cc(O)cc3O2)cc1O` (stereo not drawn) [compound 125], the MIC in assay [1] (Example 1, Tables 1 to 10) is 128 mg/L (≈ 423 µM); in the assay on S. aureus Mu50 (setting [2]) it was more than 128 mg/L.
Take `COc1cc(OC)c(-c2coc3cc(O)cc(O)c3c2=O)cc1OC` [compound 98]: the MIC in assay [1] (Example 1, Tables 1 to 10) was 128 mg/L (≈ 372 µM); with S. aureus Mu50 (setting [2]), more than 128 mg/L.
Turning to `COc1cc(O)c(CN2CCCCC2)c2oc(-c3ccccc3)cc(=O)c12` [compound 48], the “MIC (mg/L) FDA209P” value in assay [1] (Example 1, Tables 1 to 10) is 128 mg/L (≈ 350 µM). Moreover, the “MIC (mg/L) Mu50” value in the assay with S. aureus Mu50 is listed as more than 128 mg/L.
Take `O=C(O)[C@H]1O[C@@H](Oc2cc3oc(-c4ccccc4)cc(=O)c3c(O)c2O)[C@H](O)[C@@H](O)[C@@H]1O` [compound 59]: the MIC amounted to 128 mg/L (≈ 287 µM) in assay [1] (Example 1, Tables 1 to 10) and 128 mg/L (≈ 287 µM) in the assay on S. aureus Mu50 (setting [2]).
Take `COc1ccc(-c2oc3cc(OC)c(OC)c(O)c3c(=O)c2OC)cc1O` [compound 33]: the MIC in assay [1] (Example 1, Tables 1 to 10) is more than 128 mg/L; with S. aureus Mu50 (setting [2]), 128 mg/L (≈ 342 µM).
For `COc1ccc(-c2c(C(=O)O)oc3cc(OC)cc(OC)c3c2=O)cc1` [compound 92], the MIC is more than 128 mg/L in assay [1] (Example 1, Tables 1 to 10) and more than 128 mg/L with S. aureus Mu50 (setting [2]).
Consider `O=c1cc(-c2ccc(O)cc2)oc2ccccc12` [compound 68, 2-(4-hydroxyphenyl)chromen-4-one], for which the MIC turned out to be 128 mg/L (≈ 537 µM) in assay [1] (Example 1, Tables 1 to 10) and 128 mg/L (≈ 537 µM) with S. aureus Mu50 (setting [2]).
As to `COc1ccc(-c2c(C)oc3cc(O)cc(O)c3c2=O)cc1OC` [compound 73], the MIC in assay [1] (Example 1, Tables 1 to 10) was 128 mg/L (≈ 390 µM); with S. aureus Mu50 (setting [2]), more than 128 mg/L.
As for `COc1ccc(-c2coc3cc(OC(=O)N(C)C)cc(O)c3c2=O)cc1OC` [compound 79], the MIC (in assay [1]; in the assay with S. aureus Mu50 (setting [3])) was more than 128 mg/L in each case.

Source of the values: US20150322033A1, “ANTIBACTERIAL AGENT” (priority 2012, published 2015).
